Activity calls are given as the source filed them. The calls are words filed in the database; no cut-off is given here.
Tests used:
Rattus norvegicus [1] = experiment: Toxicity in Rattus norvegicus Wistar albino (rat) assessed as change in relative weight of testis at 5 mg/kg, po after 15 days; assay type: organism-based; parameters: dose 5 mg/kg, route oral; conditions: in vivo, 360 h
Rattus norvegicus [2] = experiment: Induction of steroidogenesis in Rattus norvegicus Wistar albino (rat) Leydig cells assessed as increase in pregnenolone-induced testosterone level at 5 mg/kg, po after 15 days by radioimmunoassay (reference value: 34 +/- 5.49 no unit); assay type: functional
Rattus norvegicus [3] = experiment: Effect on P450scc expression in Rattus norvegicus Wistar albino (rat) Leydig cells at 5 mg/kg, po after 15 days by immunocytochemistry analysis relative to untreated control; assay type: functional, organism-based; parameters: dose 5 mg/kg
Rattus norvegicus [4] = experiment: Induction of steroidogenesis in Rattus norvegicus Wistar albino (rat) assessed as increase in total plasma testosterone level at 5 mg/kg, po after 15 days (reference value: 2.01 +/- 1.21 ng/mL); assay type: functional
Rattus norvegicus [5] = experiment: Toxicity in Rattus norvegicus Wistar albino (rat) assessed as change in relative dry weight of seminal vesicle at 5 mg/kg, po after 15 days; assay type: organism-based; parameters: dose 5 mg/kg, route oral; conditions: in vivo, 360 h
Rattus norvegicus [6] = experiment: Effect on StAR expression in Rattus norvegicus Wistar albino (rat) Leydig cells at 5 mg/kg, po after 15 days by immunocytochemistry analysis relative to untreated control; assay type: functional, organism-based; parameters: dose 5 mg/kg
Rattus norvegicus [7] = experiment: Induction of steroidogenesis in Rattus norvegicus Wistar albino (rat) Leydig cells assessed as increase in human chorionic gonadotropin-induced testosterone level at 5 mg/kg, po after 15 days by radioimmunoassay (reference value: 92.75 +/- 4.38 no unit); assay type: functional
Rattus norvegicus [8] = experiment: Induction of steroidogenesis in Rattus norvegicus Wistar albino (rat) Leydig cells assessed as increase in dbcAMP-induced testosterone level at 5 mg/kg, po after 15 days by radioimmunoassay (reference value: 69.83 +/- 1.85 no unit); assay type: functional
Rattus norvegicus [9] = experiment: Induction of steroidogenesis in Rattus norvegicus Wistar albino (rat) Leydig cells assessed as increase in 22(R)-OH-C-induced testosterone level at 5 mg/kg, po after 15 days by radioimmunoassay (reference value: 83.5 +/- 3.36 no unit); assay type: functional
Rattus norvegicus [10] = experiment: Toxicity in Rattus norvegicus Wistar albino (rat) Leydig cells assessed as morphological changes at 5 mg/kg, po after 15 days by hematoxylin-eosin staining-based light microscopic analysis relative to untreated control; assay type: organism-based; parameters: dose 5 mg/kg, route oral; conditions: in vivo, 360 h
Rattus norvegicus [11] = experiment: Toxicity in Rattus norvegicus Wistar albino (rat) Leydig cells assessed as morphological changes at 5 mg/kg, po after 15 days by electron transmission microscopic analysis relative to untreated control; assay type: organism-based; parameters: dose 5 mg/kg, route oral; conditions: in vivo, 360 h
Rattus norvegicus [12] = experiment: Toxicity in Rattus norvegicus Wistar albino (rat) assessed as change in body weight at 5 mg/kg, po after 15 days; assay type: organism-based; parameters: dose 5 mg/kg, route oral; conditions: in vivo, 360 h

For COc1cccc(OC)c1/C=C1\SC(=O)N(Cc2ccc(C)cc2)C1=O, the Activity (Rattus norvegicus [1]) was “Non-toxic”, the testosterone level (Rattus norvegicus [2]) was 56.66 and the Activity (Rattus norvegicus [3]) was “inactive”. The Activity (Rattus norvegicus [4]) was 7.7 ng/mL, the Activity (Rattus norvegicus [5]) was “Non-toxic” and the Activity (Rattus norvegicus [6]) was “inactive”. The testosterone level (Rattus norvegicus [7]) was 164.1, the testosterone level (Rattus norvegicus [8]) was 154.16 and the testosterone level (Rattus norvegicus [9]) was 118.3. For the same molecule, the Activity (Rattus norvegicus [10]) was “Non-toxic”, the Activity (Rattus norvegicus [11]) was “Non-toxic” and the Activity (Rattus norvegicus [12]) was “Non-toxic”.
